Source: patent publication EP2186515A1, “PHARMACEUTICAL COMPOSITION COMPRISING THE COMBINATION OF AN ANTI-DEPRESSIVE AGENT AND AN ANSIOLYTIC AGENT FOR CONTROL AND TREATMENT OF DEPRESSIVE DISORDERS” (World Trade Import-Export, WTIE A.G., priority 2007, dated 2009)

Key:
human serum proteins = details: cited from earlier work
[1] = human, in vivo, cited from earlier work
[2] = in vivo; cited from earlier work
clinical = details: human, in vivo, po
Text: We performed a study on 30 healthy volunteer subjects using a double-blind design. Subjects with ages between 18 and 55 years were recruited. Exclusion criteria were: the use of substances with activity in CYP3A4 (quinidines), inhibitors (erythromycin), inducers (carbamazepines); consumption of illegal drugs (cocaine, heroin, tetrahydrocannabinoids); cigarettes, oral contraceptives, pregnancy, nursing, renal or liver disease history, obesity (>30% above ideal weight), abnormal biochemistry (electrolytes, liver or renal function) or hematologic (full count of blood cells).
After medicament delivery in each group, blood samples were taken at 0.5, 1, 1.5, 2, 2.5, 3, 4, 6, 8, 24 y 32 hours.

[3] = cited from earlier work
CYP2D6 isoenzyme = CYP2D6 isoenzyme (Homo sapiens, UniProt P10635); details: cited from earlier work; for activity over CYP2D6 isoenzyme compared with fluoxetine and its active metabolite: relative to fluoxetine and its active metabolite
Chain of CYP2D6 isoenzyme (P10635 whole entry): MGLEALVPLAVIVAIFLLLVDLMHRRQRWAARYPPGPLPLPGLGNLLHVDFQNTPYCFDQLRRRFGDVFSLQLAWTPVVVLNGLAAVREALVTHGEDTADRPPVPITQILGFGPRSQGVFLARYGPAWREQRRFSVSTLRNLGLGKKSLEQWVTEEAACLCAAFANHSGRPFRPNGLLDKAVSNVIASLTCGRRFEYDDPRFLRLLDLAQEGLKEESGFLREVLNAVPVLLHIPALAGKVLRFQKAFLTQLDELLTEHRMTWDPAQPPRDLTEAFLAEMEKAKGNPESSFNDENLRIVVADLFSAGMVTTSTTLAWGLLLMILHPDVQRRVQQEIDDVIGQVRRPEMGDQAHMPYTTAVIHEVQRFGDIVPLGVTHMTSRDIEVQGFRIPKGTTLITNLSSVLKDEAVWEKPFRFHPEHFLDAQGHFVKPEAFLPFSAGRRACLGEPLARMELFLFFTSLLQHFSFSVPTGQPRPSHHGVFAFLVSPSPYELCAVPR

[4] = system: serotonin reuptake process; details: relative to Sertraline; cited from earlier work
[5] = metabolites of Alprazolam; cited from earlier work

## Cc1nnc2n1-c1ccc(Cl)cc1C(c1ccccc1)=NC2 [Alprazolam]
Human serum proteins
  attached to human serum proteins: 80%
human, in vivo, po
  t1/2 (Clearance half-life): 11.3 ± 2.2 h
[1]; po
  time to maximum plasma concentrations: 1 to 2 h
[1]
  Plasma clearance half-life, range: 6.3 to 26.9 h
[2]
  concentrations in steady state related with toxicity: higher than 60 ng/mL
clinical
  AUC(0-inf): 167 ± 53.1 ng·h/mL
  Cmax: 12.6 ± 7.5 ng/mL
  Tmax: 2.6 ± 1.4 h

## CN[C@H]1CC[C@@H](c2ccc(Cl)c(Cl)c2)c2ccccc21 [Sertraline]
[3]; after delivering fixed doses
  variation coefficient of plasma concentrations: 38%
[3]; oral administration, after seven days, 10080 min
  dose recovered in urine and feces: 88%
[3]; plasma
  Plasma half-life: 22 to 30 h
CYP2D6 isoenzyme; in vitro
  in vitro inhibition of CYP2D6 isoenzyme: weak in vitro inhibition
CYP2D6 isoenzyme
  activity over CYP2D6 isoenzyme compared with fluoxetine and its active metabolite: five to ten times lower
The two drugs administered in combination
  effect of Sertraline on Alprazolam kinetics: does not significantly alter

## N[C@H]1CC[C@@H](c2ccc(Cl)c(Cl)c2)c2ccccc21 [DemethylSertraline]
CYP2D6 isoenzyme
  activity over CYP2D6 isoenzyme compared with fluoxetine and its active metabolite: five to ten times lower
[4]
  activity over serotonin reuptake process compared with unaltered drug: eight times lower

## O=C(c1ccccc1)c1ccccc1 [benzophenone]
[5]
  biological activity compared with therapeutic activity of Alprazolam: essentially inactive

## OCc1nnc2n1-c1ccc(Cl)cc1C(c1ccccc1)=NC2 [alpha-hydroxy-Alprazolam]
[5]
  biological activity compared with therapeutic activity of Alprazolam: about one half
